Assay results: publication PMC7766159, “Novel Psychoactive Phenethylamines: Impact on Genetic Material” (International Journal of Molecular Sciences, 2020)

Legend:
TK6 cells [1] = experiment: Cytotoxicity analysis (Guava ViaCount, cell viability); format: cell-based, human; conditions: 26 h; for concentration up to which no cytotoxicity and cytostasis was induced: Guava ViaCount assay
Description: In the preliminary phase of the research, we determined the concentrations to be used in the subsequent experiments aimed at evaluating the potential genotoxicity of different molecules under study. First, we assessed the 2C-H, 2C-I, 2C-B, 25B-NBOMe, and MDMA-induced cytotoxicity after 26 h treatment (time required by TK6 cells to carry out two cell cycles) by measuring the percentage of live cells at the different concentrations tested (6.25, 12.5, 25, 35, 50, 75 µM). This value was normalized on the one obtained in the untreated control cultures C (-) equal to 100% in order to check whether the cellular viability complied with the OECD threshold (equal to 55 ± 5%).
(§1) In all experiments, aliquots of 2 × 10^5 of TK6 cells were treated with increasing concentrations of phenethylamines from 0 to 75 µM and incubated for 26 h, corresponding to two replication cycles for the analysis of cytotoxicity, cytostasis, apoptosis, and genotoxicity, while for the analysis of ROS, 1 h of treatment was performed.
Cytotoxicity assay was performed as previously described by Lenzi et al.. Briefly, at the end of the phenethylamines treatment time, 1.5 × 10^5 cells were stained with Guava ViaCount Reagent. The reagent contains the Propidium Iodide (PI) that allows us to discriminate viable from dead cells based on different permeability to DNA-binding dye.
180 μL of reagent were added to 20 μL of cell suspension and incubated for 5 min at room temperature (RT). After, a total of 1000 events were acquired and analyzed by Guava ViaCount software.
The results obtained from the samples treated with different concentrations of phenethylamines were normalized on those obtained from the untreated control cultures, accounted equal to 100%.

TK6 cells [2] = experiment: Cytostasis analysis (Relative Population Doubling, Guava ViaCount); format: cell-based, human; conditions: for Relative Population Doubling (RPD): 26 h treatment, vs untreated control C (-) = 100%, mean ± SEM; for concentrations that caused an RPD value well above 55 ± 5% (OECD threshold): 26 h, tested 6.25-75 µM
Excerpt: In addition, to make the genotoxicity test reliable, it is necessary to check the cellular proliferation in order to verify that a sufficient number of cells has undergone mitosis and so transmitted the genetic damage suffered to the daughter cells. For this purpose, the OECD recommends the measurement of the Relative Population Doubling (RPD) to estimate the cytostasis and, analogously to the cytotoxicity, establishes a threshold at most equal to 55 ± 5% [45].
as §1
In parallel, always using the Guava ViaCount Reagent, the number of cells seeded at time 0 and that measured at the end of the phenethylamines treatment time was used to check the correct replication in the control cultures and to compare it to that measured in the treated cultures by the RPD, calculated as the following formula [46, 47]: RPD= (No. of Population doublings in treated cultures)/(No. of Population doublings in control cultures) × 100
Similarly to cytotoxicity, the cytostasis was checked in order to verify that cell proliferation respected the threshold established by the OECD guideline (55 ± 5%).

TK6 cells [3] = experiment: Apoptosis analysis (Guava Nexin Assay); format: cell-based, human; conditions: 26 h
Description: as §1
The percentage of apoptotic cells was evaluated by the Guava Nexin Assay according to the procedure by Lenzi et al..
Briefly, at the end of the phenethylamines treatment time, the percentage of apoptotic cells was assessed using the Guava Nexin Reagent. The reagent contains the 7-aminoactinomycin D (7-AAD), a cell non-permeant dye, that allows discrimination between live and dead cells and the Annexin-V-PE that allows the identification of apoptotic cells by binding the phosphatidylserine on the cell surface.
100 μL of reagent were added to 100 μL of cell suspension (~1 × 10^5 cells) and incubated for 20 min at RT. After, a total of 2000 events were acquired and analyzed by Guava Nexin software.
The apoptotic cell percentages recorded in the cultures treated with phenethylamines different concentrations were normalized on those recorded in the untreated control cultures, accounted equal to 1 and expressed as apoptotic fold increase.

TK6 cells [4] = experiment: Genotoxicity analysis (micronucleus frequency, automated flow cytometric protocol); format: cell-based, human; conditions: for MNi frequency fold increase: vs C (-); for relative genotoxic potency: comparison within the series
Description: as §1
The analysis of the MNi frequency was performed using a new automated flow cytometric protocol that we recently developed in our laboratory. The detailed protocol is described in the paper by Lenzi et al. and was used in our previous publication to analyze the genotoxicity of some synthetic cannabinoids.
Briefly, at the end of the phenethylamines treatment time, 7 × 10^5 cells were collected and incubated with 7-AAD at RT for 5 min, after which the cells were lysed and stained with SYTOX Green for 1 h. After, a total of 10,000 nuclei, derived from viable and proliferating cells (7-AAD negative), and the corresponding number of micronuclei were acquired. The discrimination between nuclei and MNi occurs on the basis of the different size analyzed by Forward Scatter (FSC), and the different intensity of green fluorescence (SYTOX Green).
The MNi frequencies (number of MNi/10,000 nuclei) recorded in treated cultures were normalized on those recorded in the untreated control cultures, accounted equal to 1 and expressed as MNi frequency fold increase.
As recommended by OECD guideline 487, we used MMC and VINB as positive controls, being known clastogen and aneuploidogen agents, respectively.

HepG2 cells = tested on: HepG2 cells; parameters: method as in PMID 31068823; conditions: cited from earlier work
TK6 cells [5] = experiment: ROS analysis (DCFH2-DA fluorescence); format: cell-based, human; conditions: 1 h; 35 µM for 2C-H, 2C-I and MDMA, 12.5 µM for 2C-B and 25B-NBOMe; vs C (-) equal to 1
Description: Lastly, in order to identify a possible mechanism of action at the basis of the genotoxic activity, TK6 cells were treated for 1 h with the highest concentration tested for each substance: 35 µM for 2C-H, 2C-I and MDMA, and 12.5 µM for 2C-B and 25B-NBOMe, and then the possible ROS induction was measured.
as §1
At the end of the phenethylamines treatment time, 2 × 10^5 cells were centrifuged, resuspended in PBS1X to measure intracellular ROS level and stained at 37 °C in the dark for 20 min with 2′,7′-dichlorodihydrofluorescin diacetate (DCFH2-DA). After, a total of 5000 events, derived from viable cells, were acquired and analyzed using Guava Incyte software.
The fluorescence intensity of 2′,7′-dichlorofluorescin (DCF) (which forms in cells in the presence of ROS) recorded in treated cultures was normalized on those recorded in the untreated control cultures, accounted equal to 1 and expressed as a ROS fold increase.

[6] = tested on: undifferentiated and differentiated human SH-SY5Y cells; parameters: method as in PMID 28067045; conditions: cited from earlier work
primary rat hepatocytes = tested on: primary rat hepatocytes; parameters: method as in PMID 27255387; conditions: 24 h; cited from earlier work
C2C12 myoblast cells = tested on: C2C12 myoblast cells; parameters: method as in PMID 30925718; conditions: concentrations 30 times higher than in this study, 24 h; cited from earlier work
SH-SY5Y = tested on: SH-SY5Y; parameters: method as in PMID 28067045, PMID 30925718, PMID 28527032; conditions: 2–24 h treatment, concentration-dependent (1000–3000 μM); cited from earlier work
HepG2 = tested on: HepG2; parameters: method as in PMID 28645576; conditions: 24 h treatment; cited from earlier work
TK6 cells [7] = tested on: TK6 cells; parameters: method as in PMID 27637481; conditions: CYP1A1, 1B1 and 1A2 not expressed; cited from earlier work
[8] = both tested concentrations, 6.25 µM and 12.5 µM, 26 h
[9] = vs untreated control C (-) equal to 1, tested concentrations

| Compound | Relative Population Doubling (RPD) (TK6 cells [2]; 6.25 µM) | Relative Population Doubling (RPD) (TK6 cells [2]; 12.5 µM) | Relative Population Doubling (RPD) (TK6 cells [2]; 25 µM) | Relative Population Doubling (RPD) (TK6 cells [2]; 35 µM) | Relative Population Doubling (RPD) (TK6 cells [2]; 50 µM) | Relative Population Doubling (RPD) (TK6 cells [2]; 75 µM) | concentrations that caused an RPD value well above 55 ± 5% (OECD threshold) (TK6 cells [2]) | further results |
| --- | --- | --- | --- | --- | --- | --- | --- | --- |
| COc1cc(CCN)c(OC)cc1Br [2C-B, 2,5-dimethoxy-4-bromophenethylamine] | 95.9% ± 0.7 | 93.1% ± 2.1 | 69.7% ± 1.6 | 63.1% ± 1.6 | 10.0% ± 1.8 | 0.0% | up to 35 µM | concentration up to which no cytotoxicity and cytostasis was induced (TK6 cells [1]): up to 35 µM; apoptosis fold increase (TK6 cells [3]; 25 µM and 35 µM, vs C (-)): statistically significant increase; MNi frequency fold increase (TK6 cells [4]; [8]): increased at both the tested concentrations; relative genotoxic potency (TK6 cells [4]): stronger genotoxic agents than 2C-I and 2C-H |
| COc1ccc(OC)c(CCN)c1 [2C-H, 2,5-dimethoxyphenethylamine] | 97.5% ± 0.9 | 81.1% ± 1.8 | 85.0% ± 2.4 | 74.0% ± 1.8 | 34.1% ± 1.2 | 13.0% ± 1.5 | up to 35 µM | concentration up to which no cytotoxicity and cytostasis was induced (TK6 cells [1]): up to 35 µM; apoptosis fold increase (TK6 cells [3]; [9]): never reached a doubling; MNi frequency fold increase (TK6 cells [4]; 35 µM, 26 h): statistically significant increase |
| COc1cc(CCN)c(OC)cc1I [2C-I, 2,5-Dimethoxy-4-iodophenethylamine] | 90.9% ± 0.7 | 89.6% ± 2.2 | 72.5% ± 2.0 | 63.9% ± 1.6 | 54.8% ± 0.9 | 30.8% ± 1.0 | up to 35 µM | concentration up to which no cytotoxicity and cytostasis was induced (TK6 cells [1]): up to 35 µM; apoptosis fold increase (TK6 cells [3]; [9]): never reached a doubling; MNi frequency fold increase (TK6 cells [4]; 35 µM, 26 h): statistically significant increase |
| CC(N)Cc1ccc(Cl)cc1 (stereo not shown) [4-chloroamphetamine] | – | – | – | – | – | – | – | mitochondrial superoxide levels (HepG2 cells): increase mitochondrial superoxide levels |
| CC(N)Cc1ccc(F)cc1 (stereo not shown) [4-fluoroamphetamine, 4-Fluoroamphetamine] | – | – | – | – | – | – | – | mitochondrial superoxide levels (HepG2 cells): increase mitochondrial superoxide levels |
| COc1cc(CCNCc2ccccc2OC)c(OC)cc1Br [25B-NBOMe, 4-bromo-2,5-dimethoxy-N-[(2-methoxyphenyl)methyl]-benzeneethanamine] | 86.4% ± 1.3 | 81.2% ± 2.0 | 50.0% ± 0.8 | 1.0% ± 0.2 | 0.0% | 0.0% | up to 12.5 µM | concentration up to which no cytotoxicity and cytostasis was induced (TK6 cells [1]): up to 12.5 µM; apoptosis fold increase (TK6 cells [3]; [9]): never reached a doubling; MNi frequency fold increase (TK6 cells [4]; [8]): increased at both the tested concentrations; relative genotoxic potency (TK6 cells [4]): stronger genotoxic agents than 2C-I and 2C-H |
| CNC(C)Cc1ccc2c(c1)OCO2 (stereo not shown) [MDMA, 3,4-methylenedioxy-methamphetamine, reference compound] | 96.0% ± 1.0 | 96.0% ± 0.8 | 98.7% ± 0.9 | 98.0% ± 1.5 | 96.0% ± 1.2 | 91.9% ± 1.3 | all the concentrations tested | cytotoxic and cytostatic effect (TK6 cells [1]; all concentrations tested (6.25-75 µM)): did not show a cytotoxic and cytostatic effect; apoptosis fold increase (TK6 cells [3]; [9]): never reached a doubling; MNi frequency fold increase (TK6 cells [4]; 25 and 35 µM, 26 h): did not increase the MNi frequency in any case; genotoxicity (MN test outcome) (TK6 cells [4]; 26 h, without metabolic activation): not genotoxic; ROS fold increase (mean fluorescence intensity) (TK6 cells [5]): did not highlight any ROS level increase; production of ROS [6]: unable to trigger the production of ROS; ROS levels (primary rat hepatocytes): increase of ROS levels; mitochondrial superoxide production (C2C12 myoblast cells): increase in the mitochondrial superoxide production |
| CCCC(C(=O)c1ccc2c(c1)OCO2)N1CCCC1 (stereo not shown) [MDPV] | – | – | – | – | – | – | – | superoxide levels (SH-SY5Y): increase in superoxide levels; concentration that increased O2•− levels (HepG2): 2 mM |
| CC(N)Cc1ccccc1 (stereo not drawn) [amphetamine, α-methylphenylethylamine] | – | – | – | – | – | – | – | mitochondrial superoxide levels (HepG2 cells): increase mitochondrial superoxide levels |
| c1ccc2c(c1)cc1ccc3cccc4ccc2c1c34 [benzo [a] pyrene] | – | – | – | – | – | – | – | micronuclei induction (TK6 cells [7]): failed to induce micronuclei |
| CNC(C)C(=O)c1ccc(C)cc1 (stereo not shown) [mephedrone] | – | – | – | – | – | – | – | concentration that increased O2•− levels (HepG2): 1 mM |
| CNC(C)C(=O)c1ccc2c(c1)OCO2 (stereo not shown) [methylone] | – | – | – | – | – | – | – | superoxide levels (SH-SY5Y): increase in superoxide levels |
| CCCC(C(=O)c1ccc2ccccc2c1)N1CCCC1 (stereo not shown) [naphyrone] | – | – | – | – | – | – | – | concentration that increased O2•− levels (HepG2): 0.2 mM |
| CCCC(C(=O)c1ccccc1)N1CCCC1 (stereo not shown) [αPVP] | – | – | – | – | – | – | – | superoxide levels (SH-SY5Y): increase in superoxide levels |
